Data: patent US20220062233A1 (The Board of Trustees of the Leland Stanford Junior …, priority 2018, published 2022)

Columns and labels:
[1] = target: T1, interaction between Supt4h and NGN (subunit of Supt5h) (Homo sapiens, UniProt O00267+P63272); test: Split Gaussia luciferase complementation assay (M2-8 Luciferase); format: cell-based; settings: M2-8 cells
T1 construct: expressed in transfected cells
Outline: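 HEK293-derived M2-8 cells inducibly express Supt4h-Gluc1 and NGN-Gluc2 fragments (stabilizing mutations) on RheoSwitch ligand addition; ligand plus compound added 24 h after plating and left 24 h. Cells frozen, lysed with 10 μg/ml native coelenterazine, 1 h room temperature dark; complemented luciferase luminescence read.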

M2-8 cells = test: M2-8 Cell viability Assay; format: cell-based; settings: at the concentration of 1000 nM
mutant HTT [2] = test: Mutant HTT assay in lymphoblastoid cells (LBC), Western blot; format: cell-based, human; settings: read-out: LBC IC20 (nM) mHTT, 3 days compound treatment
Outline: (§1)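 HD patient lymphoblastoid cells (GM14044, 250 CAG repeats in mutant allele) treated with compound for 3 days. Lysates normalised by BCA, run on SDS-PAGE and immunoblotted: mutant HTT with anti-polyQ MW1, wild-type HTT with anti-Huntingtin antibody, TBP and tubulin also probed. Band intensities quantified by infrared imaging.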

wild-type HTT = test: Wild-type HTT assay in lymphoblastoid cells (LBC), Western blot; format: cell-based, human; settings: 3 days compound treatment, read-out: LBC IC20 (nM) wtHTT
Outline: as §1

[3] = system: Lymphoblastoid cells (GM14044); test: LBC cell viability (Cell Titer-Glo); format: cell-based, human; settings: at the concentration of IC20, 3-day compound treatment
Method: Cell viability was determined by Cell Titer-Glo reagent (Promega, PRG9243). After 3-day compound treatment, 15 μl of cell suspension was taken out from plate and incubated with 10 μl of CTG reagent. The values of reaction mixture were detected by Tecan.

mutant HTT [4] = test: Mutant HTT assay in induced pluripotent stem cells (iPSC); format: cell-based, human; settings: HD patient iPSCs, one day incubation, read-out: iPSC IC20 (nM) mHTT
Outline: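 Huntington's disease patient iPSCs (ND50036) plated at 7,000 cells/well, compound-treated after 48 h for one day in mTeSR1. Lysates normalised by BCA protein, then mutant HTT measured by sandwich ELISA: anti-human HTT capture, biotinylated mutant-HTT-specific detection, streptavidin-HRP/TMB colorimetric readout, interpolated from a standard curve.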

[5] = system: Huntington's disease patient iPSCs (ND50036); test: iPSC viability at IC20; format: cell-based, human; settings: at the concentration of IC20
mouse hepatocytes = test: In vitro metabolic stability in mouse hepatocytes; format: in vitro ADME
Method: A. In Vitro Metabolic Stability in Hepatocyte
A compound's metabolic stability was assessed using mouse hepatocytes incubated with pre-defined concentration of test articles over several incubation period. The extent of metabolism was calculated from the disappearance of the test compound measured by liquid chromatography mass spectrometry (LC-MS), compared to that of 0-min control. After incubation, quench solutions including internal standards were added and analyzed by LC/MS. The elimination rate constant and intrinsic clearance (CLhepatocyte) values were calculated by linear regression of the compound elimination over the duration of incubation, normalized to the cell number in the given volume of incubation medium.

[6] = system: Gmr::HTT97Q fly (mutant HTT, rough eye); test: HD-Drosophila phenotypic assay (rough eye analysis); format: in vivo, Drosophila melanogaster; settings: Gmr-HTT97Q flies, compound 10 μM in media
Excerpt: D. Alleviation of Neuron Degeneration Phenotypes of Mutant HTT in Drosophila HD Models
The Drosophila melanogaster (fruit fly) HD models carry the coding sequence of human HTT exon1 with 97 CAG repeats to mimic mutant HTT of Huntington's disease (HD). The Gmr::HTT97Q fly, expressing mutant HTT primarily in the neurons of Drosophila compound eyes, has a severe degeneration of photoreceptor neurons and the phenotypic trait ‘rough eye’. All of the fly stocks and genetics crosses are maintained at 25° C. on standard cornmeal yeast agar media.
b. Eye Morphology (Rough Eye) Analysis
Fifteen adult male flies (Gmr-HTT97Q/Gmr-HTT97Q or Gmr/Gmr) are crossed with 15 virgin female flies W1118(+/+) in a vial containing standard yeast agar media with the compound in a concentration of 10 μM. Parent-flies are removed from vials at day 7, followed by a collection of newly hatched flies for ‘rough eye’ analysis. The morphology of compound eyes is captured using a Leica DMR upright microscope equipped with a digital camera (CoolSNAP 5.0, Photometrics). To increase the depth of field, imaging software is used to create montage composite images (Helicon Focus, HeliconSoft). A total of 10 flies are collected for analysis in each individual condition, and the biological experiment is conducted three times. DMSO, the reagent solvent of the compound, is included as a control.

Compound | IC50 [1] [nM] | M2-8 Cell viability (M2-8 cells) | IC20 (mutant HTT [2]) [nM] | IC20 (wild-type HTT) [nM] | LBC viability at IC20 [3] | IC20 (mutant HTT [4]; class symbols) [nM] | iPSC viability at IC20 [5] | Mouse HepStability (CLhepatocyte) (mouse hepatocytes) | IC20 (mutant HTT [4]; numeric bounds) [nM] | HD-Drosophila Phenotypic assay (rescue of rough eye phenotype) [6]
OB(O)c1ccc(CN[C@@H]2CCCc3c2[nH]c2ccc(Br)cc32)cc1 [Compound 38, (R)-(4-(((6-bromo-2,3,4,9-tetrahydro-1H-carbazol-1-yl)amino)methyl)phenyl)boronic acid] | ≤ 100 | + (cell viability is greater than 50% at the concentration of 1000 nM) | 101 to 300 | > 1000 | * (cell viability is greater than 60% at the concentration of IC20) | < 100 | + (cell viability is greater than 75% at the concentration of IC20) | C (CLhepatocyte >30 μl/min/10^6cells) |  | 
OCc1ccc(CN[C@H]2CCCc3c2[nH]c2ccc(Br)cc32)cc1 [Compound 3] | > 1000 | + (cell viability is greater than 50% at the concentration of 1000 nM) | > 1000 | > 1000 |  |  |  |  | > 100 | @ (rough eye phenotype of HD flies is rescued by testing compound less than 40%)
